# Test results taken from patent US20080103123A1, “New compounds” (Biovitrum, priority 2006, published 2008).
# Where two headings read alike, the source gives them in different places.
# Molecular target: T1, human GPR119 receptor (Homo sapiens, UniProt Q8TDV5)
# T1 construct: expressed in transfected cells
# T1 sequence (Q8TDV5 1-335): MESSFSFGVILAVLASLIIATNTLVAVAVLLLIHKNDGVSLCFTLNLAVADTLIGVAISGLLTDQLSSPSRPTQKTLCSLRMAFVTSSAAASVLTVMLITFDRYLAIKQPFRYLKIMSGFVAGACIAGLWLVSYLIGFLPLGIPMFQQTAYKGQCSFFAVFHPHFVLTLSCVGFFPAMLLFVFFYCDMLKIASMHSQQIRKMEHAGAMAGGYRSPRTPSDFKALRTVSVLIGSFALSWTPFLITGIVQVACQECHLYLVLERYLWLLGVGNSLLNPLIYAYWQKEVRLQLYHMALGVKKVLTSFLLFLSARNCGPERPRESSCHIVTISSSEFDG
# Assay: Human GPR119 Activity Assay (cAMP, HTRF)
# Format: cell-based
# Experimental: Human GPR119 Activity Assay
# Agonists to the human GPR119 receptor were characterized by measuring human GPR119 receptor-mediated stimulation of cyclic AMP (cAMP) in HEK 293 cells expressing the human GPR119 receptor.
# Briefly, cAMP content was determined using a cAMP kit based on HTRF technology (Homogeneous Time-Resolved Fluorescence, Cisbio Cat. no. 62AM2PEC). HEK293 cells stably expressing the human GPR119 receptor (HEK293-hGPR119 cells) were cultured in DMEM (Gibco # 31966-021) supplemented with 10% Bovine Calf Serum (Hyclone # SH30072.03), and, 500 μg/mL Hygromycin B (Roche Diagnostics 843555). At 80% confluency, cells were detached using Trypsine and aliquoted at a density of 5×10^6 cells/mL in freezing medium (DMEM (Gibco # 31966-021), 20% BCS (Hyclone # SH30072.03), 10% DMSO (Sigma #D2650) and stored at −135° C. On the experimental day, HEK293-hGPR119 cells were thawn and diluted to 0.4×10^6 cells/mL in assay buffer (1×HBSS (Gibco Cat. no. 14025-049), 20 mM Hepes (Gibco Cat. no. 15630-056), 0.1% BSA, pH 7.4) and incubated with test substances for 20 min at room temperature. After addition of HTRF reagents diluted in lysis buffer, the 96- or 384-well plates were incubated 1 hour, followed by measuring the fluorescence ratio at 665 nm/620 nm. Test substances was diluted in compound buffer (1×HBSS (Gibco Cat. no. 14025-049), 20 mM Hepes (Gibco Cat. no. 15630-056), 0.1% BSA, 2 mM IBMX (Sigma-Aldrich Cat. No. 17018, pH 7.4). The potency of the agonist was quantified by determine the concentration that cause 50% activation of hGPR119 evoked increase in cAMP, EC50.
# [1] = stimulation of cAMP in HEK293 cells stably expressing human GPR119, 20 min at room temperature, HTRF, read-out: EC50 (μM), Agonist potency at the human GPR119
SMILES,EC50 [1] [µM],EC50 [µM]
"CS(=O)(=O)c1ccc(-c2ccc(OCC3CCN(C(=O)OCc4ccccc4)CC3)nc2)cc1 [EXAMPLE A2, Benzyl 4-[({5-[4-(methylsulfonyl)phenyl]pyridin-2-yl}oxy)methyl]piperidine-1-carboxylate]",0.11,–
"CN(Cc1ccc(-c2ccc(S(C)(=O)=O)cc2)cn1)C1CCN(C(=O)OC(C)(C)C)CC1 [EXAMPLE A39, tert-Butyl 4-[methyl({5-[4-(methylsulfonyl)phenyl]pyridin-2-yl}methyl)amino]-piperidine-1-carboxylate]",0.139,–
"CN(Cc1ccc(-c2ccc(S(C)(=O)=O)cc2)nc1)C1CCN(C(=O)OC(C)(C)C)CC1 [EXAMPLE B2, tert-Butyl 4-[methyl({6-[4-(methylsulfonyl)phenyl]pyridin-3-yl}methyl)amino]-piperidine-1-carboxylate]",–,0.022
